Test [1] concerns the target T1, Adenosine receptor A1 (Homo sapiens) (UniProt P30542).
T1 sequence (whole entry): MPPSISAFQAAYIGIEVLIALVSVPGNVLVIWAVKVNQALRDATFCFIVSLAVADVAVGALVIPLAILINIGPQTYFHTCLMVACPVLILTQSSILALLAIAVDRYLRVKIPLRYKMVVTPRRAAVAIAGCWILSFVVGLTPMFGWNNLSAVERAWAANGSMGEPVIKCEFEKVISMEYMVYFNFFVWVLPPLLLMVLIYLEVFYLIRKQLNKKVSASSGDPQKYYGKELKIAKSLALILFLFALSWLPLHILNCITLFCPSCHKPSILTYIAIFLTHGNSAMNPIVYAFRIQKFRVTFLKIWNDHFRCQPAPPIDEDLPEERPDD
Briefly: Allosteric enhancing activity at human adenosine A1 receptor expressed in CHO cells assessed as increase in CCPA-induced [3H]DPCPX displacement at 10 uM after 90 mins relative to control. The test is classed as cell-based.

Test [2] concerns the target T1, Adenosine receptor A1 (Homo sapiens). As to the kind of experiment: Allosteric enhancing activity at human adenosine A1 receptor expressed in CHO cells assessed as increase in [3H]-2-chloro-N6-cyclopentyladenosine Bmax at 10 uM after 90 mins relative to control. The test is classed as cell-based.
In test [3] the target is T2, Adenosine receptor A3 (Homo sapiens) (UniProt P0DMS8).
T2 sequence (whole entry): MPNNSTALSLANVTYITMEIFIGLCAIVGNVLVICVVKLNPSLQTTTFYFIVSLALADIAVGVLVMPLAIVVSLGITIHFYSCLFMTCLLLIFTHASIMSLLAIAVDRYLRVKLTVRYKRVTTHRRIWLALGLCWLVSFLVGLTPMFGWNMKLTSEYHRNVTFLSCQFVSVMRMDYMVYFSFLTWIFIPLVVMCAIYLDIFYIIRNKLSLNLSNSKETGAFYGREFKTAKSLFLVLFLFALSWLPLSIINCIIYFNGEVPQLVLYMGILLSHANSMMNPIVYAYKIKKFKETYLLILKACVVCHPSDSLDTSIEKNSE
Briefly: Displacement of [3H]MRE-3008-F20 from human adenosine A3 receptor expressed in CHO cells at 10 uM after 120 mins by scintillation counting. The test is classed as cell-based. In general terms: Loss of bound radioactivity is the signal in a displacement assay; it reports binding, not function.

Test [4] concerns the target Adenosine receptor A2a (Homo sapiens) (UniProt P29274). As to the kind of experiment: Displacement of [3H]ZM241385 from human adenosine A2A receptor expressed in CHO cells at 10 uM after 120 mins by scintillation counting. The test is classed as cell-based.
Test [5] addresses T1, Adenosine receptor A1 (Homo sapiens). Briefly: Displacement of [3H]DPCPX from human adenosine A1 receptor expressed in CHO cells at 10 uM after 120 mins by scintillation counting. The test is classed as cell-based.
The target is the same in test [6]. Briefly: Allosteric enhancing activity at human adenosine A1 receptor expressed in CHO cells assessed as inhibition of forskolin-stimulated cAMP accumulation at 100 nM incubated for 10 mins prior to forskolin-stimulation measured after 5 mins by competition protein binding assay in presence of 2-chloro-N6-cyclopentyladenosine. The test is classed as functional, cell-based. Background: cAMP levels reflect the balance of adenylyl cyclase and phosphodiesterase activity.

Test [7] has the same target. Briefly: Allosteric enhancing activity at human adenosine A1 receptor expressed in CHO cells assessed as inhibition of forskolin-stimulated cAMP accumulation at 10 uM incubated for 10 mins prior to forskolin-stimulation measured after 5 mins by competition protein binding assay. The test is classed as functional, cell-based.

The structures appear in SMILES notation.

Experimental findings from ChEMBL document CHEMBL2169819, “Synthesis and biological evaluation of 2-amino-3-(4-chlorobenzoyl)-4-[(4-arylpiperazin-1-yl)methyl]-5-substituted-thiophenes. effect of the 5-modification on allosteric enhancer activity at the A1 adenosine receptor” (J Med Chem, 2012) are described below.

Sequence of Adenosine receptor A2a (Homo sapiens) (P29274 whole entry): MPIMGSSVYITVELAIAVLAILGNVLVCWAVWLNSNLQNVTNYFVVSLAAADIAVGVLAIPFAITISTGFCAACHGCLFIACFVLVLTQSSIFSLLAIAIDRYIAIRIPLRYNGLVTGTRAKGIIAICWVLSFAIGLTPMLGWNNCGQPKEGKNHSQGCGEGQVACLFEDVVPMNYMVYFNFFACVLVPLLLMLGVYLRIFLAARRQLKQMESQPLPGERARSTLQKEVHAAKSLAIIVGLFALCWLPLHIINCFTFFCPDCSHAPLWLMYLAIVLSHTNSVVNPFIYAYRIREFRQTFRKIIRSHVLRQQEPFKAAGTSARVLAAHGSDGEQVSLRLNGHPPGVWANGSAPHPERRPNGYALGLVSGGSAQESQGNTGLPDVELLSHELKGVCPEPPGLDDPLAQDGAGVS

What is called inhibition is the change of the read-out against control, counted positive when it falls. For the compound `Nc1sc(-c2ccccc2)c(CN2CCN(c3ccc(Cl)cc3)CC2)c1C(=O)c1ccc(Cl)cc1`, the Ratio Ki in test [1] was found to be 7.9. Also, the fold change (FC) in test [2] amounted to 9.7. For the same compound, the inhibition in test [3] is less than 12%; in test [4] it was less than 12%; in test [5] it was less than 12%; in test [6] it was 67%; in test [7], 68%.
On to `Nc1sc(-c2ccc(Cl)cc2)c(CN2CCN(c3ccccc3C(F)(F)F)CC2)c1C(=O)c1ccc(Cl)cc1`, for which, in test [1], the Ratio Ki was determined as 7.2. The fold change (FC) in test [2] worked out at 8.1. Further, the inhibition in test [3] was less than 12%; in test [4], less than 12%; in test [5], less than 12%; in test [6], 62%; in test [7], 66%.
As to `COc1ccc(N2CCN(Cc3c(C)sc(N)c3C(=O)c3ccc(Cl)cc3)CC2)cc1`, the Ratio Ki in test [1] was 2.6. The fold change (FC) in test [2] stood at 3.2. Moreover, the inhibition was less than 12% in test [3]; less than 12% in test [4]; less than 12% in test [5]; 30% in test [6]; 31% in test [7].
With `Nc1sc(-c2ccc(Cl)cc2)c(CN2CCN(c3ccc(F)cc3)CC2)c1C(=O)c1ccc(Cl)cc1`, the Ratio Ki in test [1] is 8.3. Moreover, the fold change (FC) in test [2] turned out to be 9.5. Also, the inhibition in test [3] is less than 12%; in test [4] it was less than 12%; in test [5], less than 12%; in test [6], 68%; in test [7] it was 71%.
For `Nc1sc(-c2ccc(Cl)cc2)c(CN2CCN(c3ccc(Cl)c(Cl)c3)CC2)c1C(=O)c1ccc(Cl)cc1`, the Ratio Ki in test [1] is 7.7. In test [2], the fold change (FC) came out at 8.3. The inhibition in test [3] was less than 12%; in test [4], less than 12%; in test [5] it was less than 12%; in test [6], 67%; in test [7], 69%.
In the case of `Cc1sc(N)c(C(=O)c2ccc(Cl)cc2)c1CN1CCN(c2ccc(C#N)cc2)CC1`, the Ratio Ki in test [1] was found to be 1.2. The fold change (FC) in test [2] was 1.4. Moreover, the inhibition is less than 12% in test [3]; less than 12% in test [4]; less than 12% in test [5]; 15% in test [6]; 11% in test [7].
As for `Cc1sc(N)c(C(=O)c2ccc(Cl)cc2)c1CN1CCN(c2ccc(Br)cc2)CC1`, the Ratio Ki in test [1] is 4.5. Further, in test [2], the fold change (FC) was 4.9. Besides, the inhibition in test [3] was less than 12%; in test [4], less than 12%; in test [5] it was less than 12%; in test [6], 46%; in test [7], 49%.
Regarding `Cc1sc(N)c(C(=O)c2ccc(Cl)cc2)c1CN1CCN(c2cccc(C(F)(F)F)c2)CC1`, the Ratio Ki in test [1] turned out to be 5.7. Moreover, in test [2], the fold change (FC) came to 6.2. In addition, the inhibition was less than 12% in test [3]; less than 12% in test [4]; less than 12% in test [5]; 52% in test [6]; 51% in test [7].
Turning to `Nc1sc(-c2ccc(Cl)cc2)c(CN2CCN(c3ccc(Cl)cc3)CC2)c1C(=O)c1ccc(Cl)cc1`, in test [1], the Ratio Ki amounted to 8.7. For the same compound, the fold change (FC) in test [2] was 11.4. The inhibition in test [3] is less than 12%; in test [4], less than 12%; in test [5] it was less than 12%; in test [6], 71%; in test [7], 85%.
Take `Nc1sc(-c2ccccc2)c(CN2CCN(c3ccccc3)CC2)c1C(=O)c1ccc(Cl)cc1`: in test [1], the Ratio Ki was found to be 8.3. Besides, the fold change (FC) in test [2] amounted to 11.5. For the same compound, the inhibition in test [3] is less than 12%; in test [4], less than 12%; in test [5] it was less than 12%; in test [6] it was 74%; in test [7], 79%.
As to `Nc1sc(-c2ccc(F)cc2)c(CN2CCN(c3ccccc3)CC2)c1C(=O)c1ccc(Cl)cc1`, in test [1], the Ratio Ki is 13.3. Further, the fold change (FC) in test [2] came out at 14.1. The inhibition in test [3] is less than 12%; in test [4], less than 12%; in test [5] it was less than 12%; in test [6], 81%; in test [7] it was 89%.
As to `Cc1sc(N)c(C(=O)c2ccc(Cl)cc2)c1CN1CCN(Cc2ccccc2)CC1`, in test [1], the Ratio Ki stood at 1.4. For the same compound, the fold change (FC) in test [2] amounted to 1.8. Moreover, the inhibition in test [3] was less than 12%; in test [4], less than 12%; in test [5], less than 12%; in test [6], 19%; in test [7], 14%.
Turning to `Nc1sc(-c2ccc(Cl)cc2)c(CN2CCN(c3ccc(C(F)(F)F)cc3)CC2)c1C(=O)c1ccc(Cl)cc1`, the Ratio Ki in test [1] worked out at 10.5. Moreover, in test [2], the fold change (FC) was found to be 11.2. Moreover, the inhibition in test [3] was less than 12%; in test [4], less than 12%; in test [5] it was less than 12%; in test [6] it was 75%; in test [7], 83%.
For `CCc1sc(N)c(C(=O)c2ccc(Cl)cc2)c1CN1CCN(c2ccccc2)CC1`, the Ratio Ki in test [1] came to 4.9. In addition, the fold change (FC) in test [2] was found to be 5.5. Also, the inhibition in test [3] was less than 12%; in test [4], less than 12%; in test [5] it was less than 12%; in test [6], 50%; in test [7], 57%.
With `Cc1sc(N)c(C(=O)c2ccc(Cl)cc2)c1CN1CCN(c2ccc(F)cc2)CC1`, the Ratio Ki in test [1] turned out to be 5.2. Besides, the fold change (FC) in test [2] amounted to 5.9. Also, the inhibition in test [3] is less than 12%; in test [4] it was less than 12%; in test [5] it was less than 12%; in test [6], 53%; in test [7] it was 50%.
For `Nc1sc(-c2ccccc2)c(CN2CCN(c3ccc(Cl)c(C(F)(F)F)c3)CC2)c1C(=O)c1ccc(Cl)cc1`, in test [1], the Ratio Ki is 7.9. Besides, in test [2], the fold change (FC) came to 8.5. Besides, the inhibition in test [3] was less than 12%; in test [4], less than 12%; in test [5] it was less than 12%; in test [6] it was 65%; in test [7], 64%.
Consider `Cc1sc(N)c(C(=O)c2ccc(Cl)cc2)c1CN1CCN(c2ccccc2)CC1`, for which the Ratio Ki in test [1] was determined as 6.4. Also, the fold change (FC) in test [2] was 6.8. Moreover, the inhibition was less than 12% in test [3]; less than 12% in test [4]; less than 12% in test [5]; 57% in test [6]; 59% in test [7].
As to `Cc1sc(N)c(C(=O)c2ccc(Cl)cc2)c1CN1CCN(c2cccc(Cl)c2)CC1`, the Ratio Ki in test [1] is 6.1. Also, the fold change (FC) in test [2] is 6.5. Also, the inhibition in test [3] was less than 12%; in test [4], less than 12%; in test [5], less than 12%; in test [6], 54%; in test [7], 58%.
For the compound `Nc1sc(-c2ccc(Cl)cc2)c(CN2CCN(c3ccc(OC(F)(F)F)cc3)CC2)c1C(=O)c1ccc(Cl)cc1`, the Ratio Ki in test [1] is 8.9. Moreover, the fold change (FC) in test [2] was found to be 10.7. The inhibition in test [3] is less than 12%; in test [4] it was less than 12%; in test [5], less than 12%; in test [6] it was 72%; in test [7], 78%.
On to `Cc1sc(N)c(C(=O)c2ccc(Cl)cc2)c1CN1CCN(c2ccc(Cl)c(Cl)c2)CC1`, for which the Ratio Ki in test [1] came to 5.4. The fold change (FC) in test [2] was 5.9. Also, the inhibition in test [3] was less than 12%; in test [4], less than 12%; in test [5], less than 12%; in test [6], 51%; in test [7], 56%.
Turning to `Nc1sc(-c2ccccc2)c(CN2CCN(c3ccc(Cl)c(Cl)c3)CC2)c1C(=O)c1ccc(Cl)cc1`, the Ratio Ki in test [1] amounted to 3. In addition, the fold change (FC) in test [2] is 6.8. For the same compound, the inhibition was less than 12% in test [3]; less than 12% in test [4]; less than 12% in test [5]; 56% in test [6]; 55% in test [7].
